From patent publication US9284330B2 (priority 2011, dated 2016)
Like-named read-outs stand apart in the source and are kept apart here.

Key:
L-type Ca2+ channel [1] = assay: Blocking of L-type Ca2+ channel by high content screening analyzer, KCl-induced calcium ion influx in SH-SY5Y cells (Fluo-4-AM)
[2] = tested on: primary cortical neuron cells; settings: 24 h incubation
L-type Ca2+ channel [3] = assay: Blocking of L-type Ca2+ channel by patch clamp, calcium current in rat dorsal root ganglion cells; type: cell-based; settings: whole cell patch clamp
acetylcholinesterase = acetylcholinesterase (Electrophorus electricus (Electric eel) (Gymnotus electricus), UniProt O42275); assay: biochemical
Sequence of acetylcholinesterase (O42275 whole entry, looked up): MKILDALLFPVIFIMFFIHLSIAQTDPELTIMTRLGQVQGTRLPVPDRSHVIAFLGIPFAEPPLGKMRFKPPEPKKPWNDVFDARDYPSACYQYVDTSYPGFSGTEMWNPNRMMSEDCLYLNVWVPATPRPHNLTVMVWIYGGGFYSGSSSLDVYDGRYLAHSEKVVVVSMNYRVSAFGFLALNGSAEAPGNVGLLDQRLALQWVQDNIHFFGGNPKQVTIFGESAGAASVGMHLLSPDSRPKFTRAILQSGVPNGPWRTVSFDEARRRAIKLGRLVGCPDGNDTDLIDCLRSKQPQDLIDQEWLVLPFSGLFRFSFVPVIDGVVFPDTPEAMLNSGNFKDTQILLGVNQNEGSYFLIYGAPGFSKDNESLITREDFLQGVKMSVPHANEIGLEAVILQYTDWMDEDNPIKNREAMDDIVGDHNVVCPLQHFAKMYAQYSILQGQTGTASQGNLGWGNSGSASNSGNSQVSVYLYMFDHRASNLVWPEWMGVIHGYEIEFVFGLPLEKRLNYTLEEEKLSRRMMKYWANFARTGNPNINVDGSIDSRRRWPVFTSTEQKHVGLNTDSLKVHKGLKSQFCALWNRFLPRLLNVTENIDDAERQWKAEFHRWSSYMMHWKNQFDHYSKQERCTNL

Structure (SMILES) | Inhibition rate of KCl-induced calcium ion influx (L-type Ca2+ channel [1]; 10 μM compound) [%] | Inhibition rate of KCl-induced calcium ion influx (L-type Ca2+ channel [1]; 50 μM compound) [%] | IC50 (acetylcholinesterase) [µM] | further results
CCOC(=O)C1=C(C)Nc2nc3c(c(N)c2C1c1cccc([N+](=O)[O-])c1)CC(Cl)(Cl)CC3 (centres unmarked) [Compound S20, 5-amino-7,7-dichloro-2-methyl-4-(3-nitrophenyl)-1,4,6,7,8,9-hexahydrobenzo[b][1,8]naphthyridine-3-carboxylic acid ethyl ester] | 46.88 | 99.27 | – | Relative neuron activity (average) ([2]; 0.01 μM): 103.9%; Relative neuron activity (average) ([2]; 0.1 μM): 98.5%; Relative neuron activity (average) ([2]; 1 μM): 47.5%
CC1=C(C(=O)OCCN(C)C)C(c2ccccc2)c2c(nc3c(c2N)CC(F)(F)CC3)N1 (centres unmarked) [Compound S29, 5-amino-7,7-difluoro-2-methyl-4-phenyl-1,4,6,7,8,9-hexahydrobenzo[b][1,8]naphthyr idine-3-carboxylic acid-2-(dimethylamino) ethyl ester] | 17.93 | 57.19 | 0.045 | Inhibition rate of L-type Ca2+ channel current (L-type Ca2+ channel [3]; 100 nmol/L compound): 11.64%; Inhibition rate of L-type Ca2+ channel current (L-type Ca2+ channel [3]; 1000 nmol/L compound): 23.76%
C=CCOC(=O)C1=C(C)Nc2nc3c(c(N)c2C1c1cccc([N+](=O)[O-])c1)CC(C)(C)CC3 (centres unmarked) [Compound S5, 5-amino-4-(3-nitrophenyl)-2,7,7-trimallyl1,4,6,7,8,9-hexahydrobenzo[b][1,8]naphthyr idine-3-carboxylic acid allyl ester] | 14.40 | 62.43 | 0.77 | –
CCOC(=O)C1=C(C)Nc2nc3c(c(N)c2C1c1cccc(F)c1)CC(C)(C)CC3 (centres unmarked) [Compound S34, 5-amino-2,7,7-trimethyl-4-(3-fluorophenyl)-1,4,6,7,8,9-hexahydrobenzo[b][1,8]napht hyridine-3-carboxylic acid ethyl ester] | 39.53 | 88.96 | 1.78 | –
CCC1=C(C(=O)OC)C(c2cccc([N+](=O)[O-])c2)c2c(nc3c(c2N)CC(C)(C)CC3)N1 (centres unmarked) [Compound S25, 5-amino-7,7-dimethyl-4-(3-nitrophenyl)-2-ethyl-1,4,6,7,8,9-hexahydrobenzo[b][1,8]n aphthyridine-3-carboxylic acid methyl ester] | 1.02 | 63.52 | 0.842 | –
CC1=C(C(=O)OCC2CC2)C(c2ccccc2Cl)c2c(nc3c(c2N)CC(C)(C)CC3)N1 (centres unmarked) [Compound S11, 5-amino-4-(2-chlorphenyl)-2,7,7-trimethyl-1,4,6,7,8,9-hexahydrobenzo[b][1,8]naphth yridine-3-carboxylic acid cyclopropylmethyl ester] | 54.69 | 75.06 | – | –
C=CCOC(=O)C1=C(C)Nc2nc3c(c(N)c2C1c1cccc(F)c1)CC(C)(C)CC3 (centres unmarked) [Compound S35, 5-amino-4-(3-fluorophenyl)-2,7,7-trimethyl-1,4,6,7,8,9-hexahydrobenzo[b][1,8]napht hyridine-3-carboxylic acid allyl ester] | – | – | 1.79 | –
CCOC(=O)C1=C(C)N(C)c2nc3c(c(N)c2C1c1ccccc1Cl)CC(C)(C)CC3 (centres unmarked) [Compound S38, 5-amino-4-(2-chlorphenyl)-1,2,7,7-tetramethyl-1,4,6,7,8,9-hexahydrobenzo[b][1, 8]na phthyridine-3-carboxylic acid ethyl ester] | 17.97 | 51.19 | – | –
CCOC(=O)C1=C(C)Nc2nc3c(c(N)c2C1c1cccc([N+](=O)[O-])c1)CC(F)(F)CC3 (centres unmarked) [Compound S19, 5-amino-7,7-difluoro-2-methyl-4-(3-nitrophenyl)-1,4,6,7,8,9-hexahydrobenzo[b][1,8]naphthyridine-3-carboxylic acid ethyl ester] | – | – | 0.333 | Inhibition rate of L-type Ca2+ channel current (L-type Ca2+ channel [3]; 100 nmol/L compound): 4.12%; Inhibition rate of L-type Ca2+ channel current (L-type Ca2+ channel [3]; 1000 nmol/L compound): 26.29%
CC1=C(C(=O)OC(C)C)C(c2cccc(Cl)c2)c2c(nc3c(c2N)CC(C)(C)CC3)N1 (centres unmarked) [Compound S33, 5-amino-2,7,7-trimethyl-4-(3-chlorphenyl)-1,4,6,7,8,9-hexahydrobenzo[b][1,8]naphth yridine-3-carboxylic acid isopropyl ester] | – | – | 1.84 | –
C#CCOC(=O)C1=C(C)Nc2nc3c(c(N)c2C1c1cccc(F)c1)CC(C)(C)CC3 (centres unmarked) [Compound S36, 5-amino-2,7,7-trimethyl-4-(3-fluorophenyl)-1,4,6,7,8,9-hexahydrobenzo[b][1,8]napht hyridine-3-carboxylic acid propargyl ester] | – | – | 1.93 | –
COC(=O)C1=C(C)Nc2nc3c(c(N)c2C1c1ccccc1)CC(C)(C)CC3 (centres unmarked) [Compound S7, 5-amino-4-phenyl-2,7,7-trimethyl-1,4,6,7,8,9-hexahydrobenzo[b][1,8]naphthyridine-3-carboxylic acid methyl ester] | 1.01 | 72.98 | 1.38 | –
COCCOC(=O)C1=C(C)Nc2nc3c(c(N)c2C1c1ccccc1Cl)CC(C)(C)CC3 (centres unmarked) [Compound S10, 5-amino-4-(2-chlorphenyl)-2,7,7-trimethyl-1,4,6,7,8,9-hexahydrobenzo[b][1,8]naphth yridine-3-carboxylic acid methoxylethyl ester] | 49.97 | 83.29 | 0.971 | Relative neuron activity (average) ([2]; 0.01 μM): 120.7%; Relative neuron activity (average) ([2]; 0.1 μM): 96.3%; Relative neuron activity (average) ([2]; 1 μM): 70.3%
CC1=C(C(=O)OC(C)C)C(c2cncnc2)c2c(nc3c(c2N)CC(C)(C)CC3)N1 (centres unmarked) [Compound S26, 5-amino-2,7,7-trimethyl-4-(pyrimidin-5-yl)-1,4,6,7,8,9-hexahydrobenzo[b][1,8]napht hyridine-3-carboxylic acid isopropyl ester] | 30.18 | 41.41 | – | –
COC(=O)C1=C(C)NC(C)=C(C(=O)OC)C1c1ccccc1[N+](=O)[O-] [Nifedipine, reference compound] | – | – | – | Inhibition rate of L-type Ca2+ channel current (L-type Ca2+ channel [3]; 100 nmol/L compound): 22.48%; Inhibition rate of L-type Ca2+ channel current (L-type Ca2+ channel [3]; 1000 nmol/L compound): 36.15%
CCOC(=O)C1=C(C)Nc2nc3c(c(N)c2C1c1ccccc1OC)CC(C)CC3 (centres unmarked) [Compound S28, 5-amino-4-(2-methoxylphenyl)-2,7-dimethyl-1,4,6,7,8,9-hexahydrobenzo[b][1,8]naph thyridine-3-carboxylic acid ethyl ester] | – | – | 0.136 | –
C#CCOC(=O)C1=C(C)Nc2nc3c(c(N)c2C1c1cccc([N+](=O)[O-])c1)CC(C)(C)CC3 (centres unmarked) [Compound S37, 5-amino-4-(3-nitrophenyl)-2,7,7-trimethyl-1,4,6,7,8,9-hexahydrobenzo[b][1,8]naphth yridine-3-carboxylic acid propargyl ester] | – | – | 1.86 | –
COC(=O)C1=C(C)Nc2nc3c(c(N)c2C1c1cccc([N+](=O)[O-])c1)CC(C)(C)CC3 (centres unmarked) [Compound S30, 5-amino-2,7,7-trimethyl-4-(3-nitrophenyl)-1,4,6,7,8,9-hexahydrobenzo[b][1,8]naphth yridine-3-carboxylic acid methyl ester] | 29.44 | 80.73 | 5.96 | –
CCOC(=O)C1=C(C)Nc2nc3c(c(N)c2C1c1cccc([N+](=O)[O-])c1)CC(C)(C)CC3 (centres unmarked) [Compound S31, 5-amino-2,7,7-trimethyl-4-(3-nitrophenyl)-1,4,6,7,8,9-hexahydrobenzo[b][1,8]naphth yridine-3-carboxylic acid ethyl ester] | 19.10 | 93.34 | 3.03 | –
CC1=C(C(=O)OC2CCC2)C(c2ccccc2F)c2c(nc3c(c2N)CC(C)(C)CC3)N1 (centres unmarked) [Compound S9, 5-amino-4-(2-fluorophenyl)-2,7,7-trimethyl-1,4,6,7,8,9-hexahydrobenzo[b][1,8]napht hyridine-3-carboxylic acid cyclobutyl ester] | 5.22 | 85.01 | 0.919 | –
COC(=O)C1=C(C)Nc2nc3c(c(N)c2C1c1cccc([N+](=O)[O-])c1)CCC(C)=C3 (centres unmarked) [Compound S18, 5-amino-2,8-dimethyl-4-(3-nitrophenyl)-1,4,6,7-tetrahydrobenzo[b][1,8]naphthyridine-3-carboxylic acid methyl ester] | – | – | 0.504 | –
CCOC(=O)C1=C(C)Nc2nc3c(c(N)c2C1c1cccc(C(F)(F)F)c1)CC(C)(C)CC3 (centres unmarked) [Compound S4, 5-amino-4-(3-trifluoromethylphenyl)-2,7,7-trimethyl-1,4,6,7,8,9-hexahydrobenzo[b][1,8]naphthyridine-3-carboxylic acid ethyl ester] | 64.82 | 85.17 | 1.05 | –
CCOC(=O)C1=C(C)Nc2nc3c(c(N)c2C1c1ccc(C(F)(F)F)cc1)CC(C)CC3 (centres unmarked) [Compound S2, 5-amino-2,7-dimethyl-4-(4-trifluoromethylphenyl)-1,4,6,7,8,9-hexahydrobenzo[b][1,8]naphthyridine-3-carboxylic acid ethyl ester] | 38.79 | 94.01 | 0.558 | –
COC(=O)C1=C(C)Nc2nc3c(c(N)c2C1c1ccccc1)CN(C)CC3 (centres unmarked) [Compound S12, 5-amino-2,7-dimethyl-4-phenyl-1,4,6,7,8,9-hexahydropyrido[2,3-b][1,6]naphthyridine-3-carboxylic acid methyl ester] | 34.59 | 52.61 | – | –
